Measured values published in patent US7704995B2 (Exelixis, Inc., priority 2003, dated 2010).
Read-outs that look alike come from different tables or passages of the source.

Target: T1, Chk1 (Homo sapiens, UniProt O14757)
T1 construct: purchased Upstate Biotechnology
T1 sequence (O14757 1-476): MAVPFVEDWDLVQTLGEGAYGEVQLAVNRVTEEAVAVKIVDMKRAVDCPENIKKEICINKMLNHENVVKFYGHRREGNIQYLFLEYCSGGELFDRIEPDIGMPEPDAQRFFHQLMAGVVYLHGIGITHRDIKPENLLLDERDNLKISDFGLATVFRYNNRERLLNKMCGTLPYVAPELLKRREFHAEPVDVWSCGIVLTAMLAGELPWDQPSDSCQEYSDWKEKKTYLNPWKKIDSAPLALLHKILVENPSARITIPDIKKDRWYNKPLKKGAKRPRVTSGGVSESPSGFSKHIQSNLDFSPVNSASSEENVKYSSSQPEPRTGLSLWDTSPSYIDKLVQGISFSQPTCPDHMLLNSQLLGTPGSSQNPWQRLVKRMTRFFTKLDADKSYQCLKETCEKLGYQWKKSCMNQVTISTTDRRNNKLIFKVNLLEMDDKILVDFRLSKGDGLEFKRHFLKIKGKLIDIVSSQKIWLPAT
Assay: Chk1 kinase assay: incorporation of γ-33P ATP into immobilized myelin basic protein
Type: biochemical
Settings: read-out: Chk1 IC50
Summary of the method: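 Chk1 (10 nM) or Chk2 (20 nM) phosphorylated plate-immobilized myelin basic protein for 1 h at room temperature in Hepes pH 7.6 buffer with MgCl2, DTT, 1% DMSO, γ-33P ATP plus 10 μM (Chk1) or 30 μM (Chk2) unlabeled ATP. Bound radioactivity counted by scintillation; IC50 determined, Ki derivable from IC50.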

[1] = Table 11, Chk1 only, class symbols A-D

Row | SMILES | IC50 (Table 11, Chk1 only) | IC50 [1]
1 | CC(C)(C)OC(=O)N1CC[C@H](CNC(=O)c2nc(-c3cccc(C(=O)N[C@@H]4c5ccccc5C[C@@H]4O)c3)cnc2N)C1 [Example 786, 1,1-dimethylethyl (3R)-3-{[({3-amino-6-[3-({[(1R,2S)-2-hydroxy-2,3-dihydro-1H-inden-1-yl]amino}carbonyl)phenyl]pyrazin-2-yl}carbonyl)amino]methyl}pyrrolidine-1-carboxylate] | ≥ 10000 nM | 
2 | Nc1ncc(-c2cccc(C(=O)N[C@@H]3c4ccccc4C[C@@H]3O)c2)nc1C(=O)NC[C@H]1CCNC1 [Example 787, 3-amino-6-[3-({[(1R,2S)-2-hydroxy-2,3-dihydro-1H-inden-1-yl]amino}carbonyl)phenyl]-N-[(3S)-pyrrolidin-3-ylmethyl]pyrazine-2-carboxamide] | < 50 nM | 
3 | CNC(=O)c1nc(-c2cc(F)cc(C(=O)N[C@H]3CCc4ccccc43)c2)cnc1N [Example 788, 3-amino-6-(3-{[(1S)-2,3-dihydro-1H-inden-1-ylamino]carbonyl}-5-fluorophenyl)-N-methylpyrazine-2-carboxamide] | 50 to 1000 nM | 
4 | CNC(=O)c1nc(-c2cc(C(=O)O)cc(C(=O)OC)c2)cnc1N [Example 789, 3-{5-amino-6-[(methylamino)carbonyl]pyrazin-2-yl}-5-[(methyloxy)carbonyl]benzoic acid] | 1000 to 10000 nM | 
5 | CNC(=O)c1nc(-c2cc(C(=O)N[C@H]3CCc4ccccc43)cc(C(=O)OC)c2)cnc1N [Example 790, methyl 3-{5-amino-6-[(methylamino)carbonyl]pyrazin-2-yl}-5-{[(1S)-2,3-dihydro-1H-inden-1-ylamino]carbonyl}benzoate] | 50 to 1000 nM | 
6 | CNC(=O)c1nc(-c2cc(C(=O)NC3CCNC3)cc(C(=O)N[C@H]3CCc4ccccc43)c2)cnc1N (stereo partly drawn) [Example 791, 5-{5-amino-6-[(methylamino)carbonyl]pyrazin-2-yl}-N-[(1S)-2,3-dihydro-1H-inden-1-yl]-N′-pyrrolidin-3-ylbenzene-1,3-dicarboxamide] | 50 to 1000 nM | 
7 | Nc1ncc(-c2cccc(C(=O)NCc3ccccc3)c2)nc1-c1nc(-c2ccccc2)n(-c2ccccn2)n1 [Example 792, 3-[5-amino-6-(5-phenyl-1-pyridin-2-yl-1H-1,2,4-triazol-3-yl)pyrazin-2-yl]-N-(phenylmethyl)benzamide] | 1000 to 10000 nM | 
8 | Cc1nc(-c2nc(-c3cccc(C(=O)N[C@H]4CCc5ccccc54)c3)cnc2N)nn1-c1ccncc1 [Example 793, 3-[5-amino-6-(5-methyl-1-pyridin-4-yl-1H-1,2,4-triazol-3-yl)pyrazin-2-yl]-N-[(1S)-2,3-dihydro-1H-inden-1-yl]benzamide] | 1000 to 10000 nM | 
9 | CC(C)(C)OC(=O)N1CCC[C@@H](NC(=O)c2nc(-c3cccc(C(=O)N[C@H]4CCc5ccccc54)c3)cnc2N)C1 [Example 794, 1,1-dimethylethyl (3R)-3-({[3-amino-6-(3-{[(1S)-2,3-dihydro-1H-inden-1-ylamino]carbonyl}phenyl)pyrazin-2-yl]carbonyl}amino)piperidine-1-carboxylate] | 1000 to 10000 nM | 
10 | CC(C)(C)OC(=O)N1CCC[C@@H](NC(=O)c2nc(-c3cccc(C(=O)N[C@@H]4c5ccccc5C[C@@H]4O)c3)cnc2N)C1 [Example 795, 1,1-dimethylethyl (3R)-3-[({3-amino-6-[3-({[(1R,2S)-2-hydroxy-2,3-dihydro-1H-inden-1-yl]amino}carbonyl)phenyl]pyrazin-2-yl}carbonyl)amino]piperidine-1-carboxylate] | ≥ 10000 nM | 
11 | CNC(=O)c1nc(-c2cc(C(=O)N[C@@H]3CCNC3)cc(C(=O)N[C@@H]3CCc4ccccc43)c2)cnc1N [Example 797, 5-{5-amino-6-[(methylamino)carbonyl]pyrazin-2-yl}-N-[(1R)-2,3-dihydro-1H-inden-1-yl]-N′-[(3R)-pyrrolidin-3-yl]benzene-1,3-dicarboxamide] | 50 to 1000 nM | 
12 | Nc1cc(-c2n[nH]c(-c3nc(-c4cccc(CO)c4)cnc3N)n2)ccn1 [Example 798, (3-{5-amino-6-[3-(2-aminopyridin-4-yl)-1H-1,2,4-triazol-5-yl]pyrazin-2-yl}phenyl)methanol] | 50 to 1000 nM | 
13 | Cc1nc(-c2nc(-c3cccc(C(=O)N[C@H]4CCc5ccccc54)c3)cnc2N)nn1C [Example 799, 3-[5-amino-6-(1,5-dimethyl-1H-1,2,4-triazol-3-yl)pyrazin-2-yl]-N-[(1S)-2,3-dihydro-1H-inden-1-yl]benzamide] | ≥ 10000 nM | 
14 | CC(C)(C)OC(=O)N1CC[C@H](NC(=O)c2nc(-c3cccc(C(=O)NC(C)(C)c4ccccc4)c3)cnc2N)C1 [Example 800, 1,1-dimethylethyl (3S)-3-({[3-amino-6-(3-{[(1-methyl-1-phenylethyl)amino]carbonyl}phenyl)pyrazin-2-yl]carbonyl}amino)pyrrolidine-1-carboxylate] | ≥ 10000 nM | 
15 | CC(C)(NC(=O)c1cccc(-c2cnc(N)c(C(=O)N[C@H]3CCNC3)n2)c1)c1ccccc1 [Example 801, 3-amino-6-(3-{[(1-methyl-1-phenylethyl)amino]carbonyl}phenyl)-N-[(3S)-pyrrolidin-3-yl]pyrazine-2-carboxamide] | 50 to 1000 nM | 
16 | NC(=O)c1nc(-c2cccc(S(=O)(=O)N[C@H]3CCc4ccccc43)c2)cnc1N [Example 802, 3-amino-6-(3-{[(1S)-2,3-dihydro-1H-inden-1-ylamino]sulfonyl}phenyl)pyrazine-2-carboxamide] | 1000 to 10000 nM | 
17 | Nc1ncc(-c2cccc(S(=O)(=O)N[C@H]3CCc4ccccc43)c2)nc1C(=O)NC1CCCNC1 (stereo partly drawn) [Example 803, 3-amino-6-(3-{[(1S)-2,3-dihydro-1H-inden-1-ylamino]sulfonyl}phenyl)-N-piperidin-3-ylpyrazine-2-carboxamide] | 50 to 1000 nM | 
18 | CN1CC[C@H](NC(=O)c2nc(-c3cccc(C(=O)N[C@H]4CCc5ccccc54)c3)cnc2N)C1 [Example 804, 3-amino-6-(3-{[(1S)-2,3-dihydro-1H-inden-1-ylamino]carbonyl}phenyl)-N-[(3S)-1-methylpyrrolidin-3-yl]pyrazine-2-carboxamide] | 50 to 1000 nM | 
19 | CN1CC[C@H](NC(=O)c2nc(-c3cccc(C(=O)N[C@@H]4c5ccccc5C[C@@H]4O)c3)cnc2N)C1 [Example 805, 3-amino-6-[3-({[(1R,2S)-2-hydroxy-2,3-dihydro-1H-inden-1-yl]amino}carbonyl)phenyl]-N-[(3S)-1-methylpyrrolidin-3-yl]pyrazine-2-carboxamide] |  | 50 to 1000 nM
20 | Nc1ncc(-c2cccc(CN[C@@H]3c4ccccc4C[C@@H]3O)c2)nc1C(=O)N[C@H]1CCNC1 [Example 806, 3-amino-6-[3-({[(1R,2S)-2-hydroxy-2,3-dihydro-1H-inden-1-yl]amino}methyl)phenyl]-N-[(3S)-pyrrolidin-3-yl]pyrazine-2-carboxamide] |  | < 50 nM
21 | Nc1ncc(-c2cccc(C(=O)N[C@@H]3c4ccccc4C[C@@H]3O)c2)nc1C(=O)N[C@H]1CCCNC1 [Example 807, 3-amino-6-[3-({[(1R,2S)-2-hydroxy-2,3-dihydro-1H-inden-1-yl]amino}carbonyl)phenyl]-N-[(3S)-piperidin-3-yl]pyrazine-2-carboxamide] |  | < 50 nM
22 | Nc1ncc(-c2cccc(CN[C@H]3CCCc4ccccc43)c2)nc1C(=O)N[C@H]1CCNC1 [Example 808, 3-amino-N-[(3S)pyrrolidin-3-yl]-6-(3-{[(1S)-1,2,3,4-tetrahydronaphthalen-1-ylamino]methyl}phenyl)pyrazine-2-carboxamide] |  | < 50 nM
23 | Nc1ncc(-c2cccc(NC(=O)Cc3ccc(Cl)cc3Cl)c2)nc1-c1nnc([C@H]2CCCNC2)[nH]1 [Example 809, N-[3-(5-amino-6-{5-[(3S)-piperidin-3-yl]-4H-1,2,4-triazol-3-yl}pyrazin-2-yl)phenyl]-2-(2,4-dichlorophenyl)acetamide] |  | < 50 nM
24 | CC(C)(C)OC(=O)N1CC[C@H](NC(=O)c2nc(-c3cccc(S(=O)(=O)N[C@@H]4CCc5ccccc54)c3)cnc2N)C1 [Example 810, 1,1-dimethylethyl (3S)-3-({[3-amino-6-(3-{[(1R)-2,3-dihydro-1H-inden-1-ylamino]sulfonyl}phenyl)pyrazin-2-yl]carbonyl}amino)pyrrolidine-1-carboxylate] |  | ≥ 10000 nM
25 | Nc1ncc(-c2cccc(O)c2)nc1C(=O)N[C@H]1CCNC1 [Example 811, 3-amino-6-(3-hydroxyphenyl)-N-[(3S)-pyrrolidin-3-yl]pyrazine-2-carboxamide] |  | 50 to 1000 nM
26 | Nc1ncc(-c2cccc(S(=O)(=O)N[C@@H]3CCc4ccccc43)c2)nc1C(=O)N[C@H]1CCNC1 [Example 812, 3-amino-6-(3-{[(1R)-2,3-dihydro-1H-inden-1-ylamino]sulfonyl}phenyl)-N-[(3S)-pyrrolidin-3-yl]pyrazine-2-carboxamide] |  | 50 to 1000 nM
27 | Nc1ncc(-c2cccc(C(=O)N[C@H]3CCc4ccccc43)c2)nc1-c1ncn(-c2ccncc2)n1 [Example 813, 3-[5-amino-6-(1-pyridin-4-yl-1H-1,2,4-triazol-3-yl)pyrazin-2-yl]-N-[(1S)-2,3-dihydro-1H-inden-1-yl]benzamide] |  | 1000 to 10000 nM
28 | Nc1ncc(-c2cccc(C(=O)NCc3cc(F)c(F)c(F)c3)c2)nc1C(=O)N[C@H]1CCNC1 [Example 814, 3-amino-N-[(3S)-pyrrolidin-3-yl]-6-[3-({[(3,4,5-trifluorophenyl)methyl]amino}carbonyl)phenyl]pyrazine-2-carboxamide] |  | < 50 nM
